Results: patent publication US20130281311A1, “SPECIFIC BIOMARKER FOR IDENTIFICATON OF EXPOSURE TO PROPIONALDEHYDE AND THE METHOD OF IDENTIFICATION USING THE SAME” (KOREA INSTITUTE OF SCIENCE AND TECHNOLOGY, priority 2012, published 2013)

Legend:
[1] = Cytotoxicity test (MTT assay); format: cell-based, human; details: human, A549 cells; A549 cell line, 48 hours, MTT, OD540; read-out: IC20 (the concentration showing 20% survival rate)
Protocol: (§1) A549 cells (Korean Cell Line Bank), the human lung cancer tissue derived cell line, were cultured in 100 mm dish containing RPMI (Gibro-BRL, USA) supplemented with 10% FBS until the confluency reached 80%. The present inventors selected propionaldehyde, one of aldehydes among many volatile organic compounds exposed in environment, as a target material based on the previous studies and reports, and then dissolved in DMSO (dimethyl sulfoxide). The concentration of vehicle was up to 0.1% in every experiment.
(§2) MTT assay was performed with A549 cell line according to the method of Mossman, et al (J. Immunol. Methods, 65, 55-63, 1983).
(§3) Particularly, the cells were distributed in 24-well plate (3.5×10^4 cells/well) containing RPMI (Gibro-BRL, USA) and then treated with propionaldehyde dissolved in DMSO. 48 hours later, 5 mg/ml of MTT (3-4,5-dimethylthiazol-2,5-diphenyltetra zolium bromide) was added thereto, followed by culture at 37° C. for 3 hours. Then, the medium was discarded and the formed formazan crystal was dissolved in […] of DMSO, which was aliquoted in 96-well plate. OD540 was measured.

A549 cells [2] = test: Cytotoxicity test (MTT assay); format: cell-based, human; details: A549, result in words
Protocol: as §1, §2, §3

[3] = system: AGT (angiotensinogen; NM_000029); test: Oligo microarray gene expression in A549 cells, AGT; format: cell-based, human; details: A549, 48 hours at the concentration of Example 1-2, Cy5/Cy3 ratio
Protocol: (§4) A549 cells were distributed in 6-well plate at the density of 25×10^4 cells/ml, to which propionaldehyde was treated for 48 hours at the concentration determined in Example <1-2>. Total RNA was extracted from the cells by using trizol reagent according to the manufacturer's protocol (Invitrogen life technologies, USA), followed by purification by using RNease mini kit (Qiagen, USA). Genomic DNA was eliminated by using RNase-free DNase set (Qiagen, USA) during the RNA purification. The amount of total RNA was measured with spectrophotometer, and the concentration was confirmed by ND-1000 Spectrophotometer (Thermo Fisher Scientific Inc., USA) and Agilent 2100 Bioanalyzer (Agilent).
(§5) For oligomicroarray analysis, cDNA was synthesized by using the total RNA obtained from the experimental group treated with propionaldehyde prepared in Example <2-1>. 30 μg of the obtained total RNA and 2 μg of oligo (dT) primer (1 μg/μl) were mixed together, followed by reaction at 65° C. for 10 minutes, which was transferred into ice for annealing. […]
(§6) Hybridization images on the slide were scanned with Agilent C scanner (Agilent technologies, CA, USA). […] To obtain gene expression rate, the scanned images were analyzed by using Agilent Feature Extraction 10.7.3.1 (Agilent technologies, CA, USA). […]

[4] = system: LPAR1 (lysophosphatidic acid receptor 1; NM_057159); test: Oligo microarray gene expression in A549 cells, LPAR1; format: cell-based, human; details: A549, 48 hours at the concentration of Example 1-2, Cy5/Cy3 ratio
Protocol: as §4, §5, §6

[5] = system: SECTM1 (secreted and transmembrane 1; NM_003004); test: Oligo microarray gene expression in A549 cells, SECTM1; format: cell-based, human; details: A549, 48 hours at the concentration of Example 1-2, Cy5/Cy3 ratio
Protocol: as §4, §5, §6

[6] = system: TNFSF10 (tumor necrosis factor (ligand) superfamily, member 10; NM_003810); test: Oligo microarray gene expression in A549 cells, TNFSF10; format: cell-based, human; details: A549, 48 hours at the concentration of Example 1-2, Cy5/Cy3 ratio
Protocol: as §4, §5, §6

[7] = system: HMOX1 (heme oxygenase 1; NM_002133); test: Oligo microarray gene expression in A549 cells, HMOX1; format: cell-based, human; details: A549, 48 hours at the concentration of Example 1-2, Cy5/Cy3 ratio
Protocol: as §4, §5, §6

A549 cells [8] = test: Human whole genome oligo microarray, genome-wide expression change; format: cell-based; details: A549, 48 hours
Protocol: In a preferred embodiment of the present invention, to screen a biomarker for the identification of propionaldehyde specific exposure, the present inventors treated propionaldehyde to the human lung cancer tissue derived cell line A549 and then investigated cytotoxicity therein. […] Based on the result of that experiment, the concentration of propionaldehyde was determined. Propionaldehyde was treated to the human lung cancer tissue derived cell line at the determined concentration. From the cell line treated with propionaldehyde, mRNA was extracted, followed by synthesis of cDNA which was labeled with fluorescein (Cy5). The control not treated with propionaldehyde was labeled with Cy3. The fluorescein-labeled cDNA was hybridized with 8×60 k oligomicroarray chip [Human whole genome oligo microarray (Agilent, USA)], followed by scanning fluorescence image to analyze gene expression patterns (see FIG. 2). […] 5 kinds of genes whose expressions were increased or decreased specifically by propionaldehyde alone among […] (butylaldehyde, valeradehyde, hexanal, heptanal, octanal, and propionaldehyde) were selected by using real-time quantitative PCR (see FIG. 3, Table 3, and Table 4). […]
A549 cells were distributed in 6-well plate at the density of 25×10^4 cells/ml, to which propionaldehyde was treated for 48 hours at the concentration determined in Example <1-2>. […]

[9] = system: AGT, LPAR1, SECTM1, TNFSF10, HMOX1; test: Quantitative real-time RT-PCR of the 5 marker genes; format: cell-based, human; details: endogenous control MDH1; result in words
Protocol: At that time, to confirm the propionaldehyde specific expression changes, the said genes were investigated with their expression patterns using the additional 5 aldehydes listed in Table 3.
Particularly, cDNA was synthesized by performing reverse transcription by using oligo dT primer and Superscript kit (Omniscipt™ kit, Qiagen, Co., USA). 0.2 μl of the synthesized cDNA was mixed with 3.8 μl of water, 0.5 μl of sense primer, 0.5 μl of anti-sense primer, and 5 μl of SYBR Green I staining supermix (Bio-rad, USA), which was loaded in PCR tube, followed by reaction in My IQ real-time PCR machine designed to execute reaction as follows: step 1, 95° C. for 3 minutes; step 2 (45 cycles), step 2-1, 95° C. for 10 seconds; step 2-2, 57° C. for 45 seconds; step 3, 95° C. for 1 minute; step 4, 55° C. for 1 minute; step 5 (80 cycles), 55° C. for 10 seconds. The PCR product was stained with SYBR Green I (Bio-rad, USA) to quantify thereof. SYBR Green I staining is the method taking advantage of intercalating with double-stranded DNA, and thus the more double-stranded DNA is produced, the stronger the fluorescence intensity is obtained during PCR. Primers for the target gene used for PCR and the endogenous control (MDH1) were added to SYBR Green master-mix, followed by PCR. […] Then, PCR was performed and the result was analyzed by using quantitative software.

SMILES: CCC=O [propionaldehyde]
- IC20 at 48 h [1]: 2.5 mM
- cytotoxicity in the human lung cancer tissue derived cell line (A549 cells [2]): had cytotoxicity
- Median ratio of microarray by propionaldehyde exposure, AGT [3]: 0.55
- Median ratio of microarray by propionaldehyde exposure, LPAR1 [4]: 0.62
- Median ratio of microarray by propionaldehyde exposure, SECTM1 [5]: 0.63
- Median ratio of microarray by propionaldehyde exposure, TNFSF10 [6]: 0.65
- Median ratio of microarray by propionaldehyde exposure, HMOX1 [7]: 1.52
- genes showing at least 1.5 fold higher expression (Cy5/Cy3 ratio) (A549 cells [8]; 900 genes out of 42,405): 2.12%
- genes showing lower expression (Cy5/Cy3 ratio lower than 0.66) (A549 cells [8]; 1,522 genes out of 42,405): 3.59%
- expression patterns of the 5 genes by real-time RT-PCR [9]: very similar to the results of microarray chip analysis
